Results reported in patent US20110008433A1, “Herbal Composition for Osteoarthritis” (priority 2009, published 2011).
Where “and” joins values, the source holds several entries; their conditions need not be identical. Identical values can stand only once. Each block holds one compound with its values, some of them ahead of it.

Assays:
[1] = Free radical scavenger, SOD mimetic activity (xanthine/xanthine oxidase, NBT); format: biochemical
Method: SO101C or vehicle was incubated with 0.12 mM xanthine, 6 mU xanthine oxidase, 27 μM nitroblue tetrazolium (NBT), 0.11 mM EDTA, 0.005% bovine serum albumin and Na2CO3 at pH 10.5 at 25° C. for 20 minutes. Conversion of xanthine to uric acid +O^−+NBT to formazan was then determined by measurement of absorbance at 595 nm and percent inhibition by superoxide dismutase or test compound was calculated.

[2] = biological target: T1, MMP-2 (Homo sapiens, UniProt P08253); experiment: Inhibition of MMP-2 activity in cell free system, gelatin zymography; format: biochemical; settings: for MMP-2 activity (% of control): 24 hours
T1 construct: Serum free culture supernatant of confluent human dermal fibroblast was used as the source of MMP; endogenous in cells; host or cells: human dermal fibroblasts, serum-free culture supernatant
T1 sequence (P08253 110-660): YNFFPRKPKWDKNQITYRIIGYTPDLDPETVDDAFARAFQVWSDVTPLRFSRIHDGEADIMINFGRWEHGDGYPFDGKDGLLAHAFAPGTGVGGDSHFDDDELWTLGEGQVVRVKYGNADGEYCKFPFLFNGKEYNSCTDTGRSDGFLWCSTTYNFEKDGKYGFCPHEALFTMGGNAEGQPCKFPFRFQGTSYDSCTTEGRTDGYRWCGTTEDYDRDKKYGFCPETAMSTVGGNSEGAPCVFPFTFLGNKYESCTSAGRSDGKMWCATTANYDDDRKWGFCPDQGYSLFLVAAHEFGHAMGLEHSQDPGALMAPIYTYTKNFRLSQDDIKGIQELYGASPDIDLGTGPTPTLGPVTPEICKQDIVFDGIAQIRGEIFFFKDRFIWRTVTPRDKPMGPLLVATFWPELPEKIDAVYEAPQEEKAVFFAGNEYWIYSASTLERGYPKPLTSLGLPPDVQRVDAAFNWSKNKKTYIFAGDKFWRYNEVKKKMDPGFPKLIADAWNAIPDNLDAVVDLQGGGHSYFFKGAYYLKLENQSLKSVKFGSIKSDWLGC
Method: Serum free culture supernatant of confluent human dermal fibroblast was used as the source of MMP. Equal amount of the supernatant treated with equal volume of 2 fold concentration of SDS sample buffer without reducing agent was subjected to electrophoresis The samples were loaded into each well of a 10% SDS polyacrylamide gel containing 1 mg/ml of bovine gelatin (Sigma), and run at 20 mA in ice bath by a BioRad Mini Protean gel apparatus. After dye front reached the bottom of the gel, the gel was washed three times, 15 minutes each, with 2.5% Triton X-100. Then, the gel was sliced and incubated in developing buffer (50 mM Tris-HCl, pH7.6, 10 mM CaCl2, 50 mM NaCl, 0.05% Brij35) containing SO101C or EDTA or vehicle at 37° C. for 24 hours. The gel was stained with 0.1% Coomassie blue R250 (Sigma) in 40% methanol and 10% acetic acid, and destained in 30% methanol and 7% acetic acid. The enzyme digested clear bands were visualized in the blue background. The comparison of the enzymatic activities (clear band width) was analyzed by Image J (NIH).

[3] = tested on: chondrocytes; experiment: ALP, collagen and GAGs synthesis in chondrocytes in micromass culture (staining), without or with H2O2; format: cell-based, Human; settings: 1 mM; same experimental conditions
Method: Human articular cartilage was obtained from patients who received total joint replacement with consent. The cartilage was digested with 1 mg/ml of Class 2 and Class 4 bacterial collagenase (Worthington Chemical, Freehold, N.J.) in DMEM containing 10% fetal calf serum (FCS) and 25 μg/ml Gentamicin (C-DMEM, Gibco, Grand Island, […]) at 37° C. overnight. […] Ten μl of 1×10^7 cells/ml in C-DMEM was seeded into the center of each well of 48 multiwell culture dish (Nunc, Roskilde, Danmark). […] The media were changed twice a week for two weeks. At the end of the incubation, the media were changed with fresh DMEM. Twenty-four hours later, the media were collected for MMP zymography study and cells were fixed and stained for alkaline phosphatase (ALP), collagen or glycosaminoglycan using Naphthol AS-MX phosphate/Fast red, Sirius red, or Safranin O (Sigma), respectively.

[4] = tested on: Human bone marrow mesenchymal stem cells; experiment: ALP, collagen and GAGs synthesis in bone marrow mesenchymal stem cells in micromass culture (staining); format: cell-based; settings: 1 mM; same experimental conditions
Method: Human bone marrow mesenchymal stem cells were obtained from patients receiving total joint replacement with consent. […] Ten μl of 1×10^7 cells/ml in C-DMEM was seeded into the center of each well of 48 multiwell culture dish (Nunc, Roskilde, Danmark). […] The media were changed twice a week for two weeks. At the end of the incubation, cells were fixed and stained for alkaline phosphatase (ALP), collagen or glycosaminoglycan using Naphthol AS-MX phosphate/Fast red, Sirius red, or Safranin O (Sigma), respectively.

[5] = tested on: MMP-2; experiment: MMP-2 activities of treated chondrocyte culture supernatants, gelatin zymography; format: cell-based, Human; settings: 1 mM; chondrocytes treated 2 weeks
Method: Ten μl of 1×10^7 cells/ml in C-DMEM was seeded into the center of each well of 48 multiwell culture dish (Nunc, Roskilde, Danmark). Two hours later, 250 μl of F12/DMEM containing 5% FCS, 6.25 μg/ml bovine insulin, 25 μg/ml ascorbic acid and 100 nM Dexamethasone (induction medium) with various concentrations of herbal composition or glucosamine (Sigma) was added. The media were changed twice a week for two weeks. At the end of the incubation, the media were changed with fresh DMEM.
Equal amount of protein of each culture medium was mixed with equal volume of 2 fold concentration of non-reducing SDS sample buffer, and incubated at room temperature for two hours for sample to denature. The samples were loaded into each well of a 10% SDS polyacrylamide gel containing 1 mg/ml of bovine gelatin (Sigma), and run at 20 mA in ice bath by a BioRad Mini Protean gel apparatus. After dye front reached the bottom of the gel, the gel was washed three times, 15 minutes each, with 2.5% Triton X-100. Then, the gel was renatured in developing buffer (50 mM Tris-HCl, pH7.6, 10 mM CaCl2, 50 mM NaCl, 0.05% Brij35) at 37° C. for 24 hours. The gel was stained with 0.1% Coomassie blue R250 (Sigma) in 40% methanol and 10% acetic acid, and destained in 30% methanol and 7% acetic acid. […] The comparison of the enzymatic activities (clear band width) was analyzed by Image J (NIH).

[6] = tested on: human chondrocytes; experiment: Gene expression of chondrocytes (RT-PCR, normalized by β-Actin); format: cell-based; settings: 2 weeks
Method: Reverse transcription was carried out at 37° C. for one hour by a programmable thermal controller (PTC-100, MJ Research, Inc., Watertown, Mass.). Reaction was terminated by raising the temperature to 93° C. for five minutes. PCR was performed in a thermal controller (PTC-100, MJ Research, Inc., Watertown, Mass.) with master mix (HotStarTaq DNA polymerase, Qiagen) at initial denaturation at 95° C. for 15 minutes, followed by 25 cycles of 94° C. for 1 minute, 58° C. for 40 seconds, and 72° C. for 40 seconds. The final cycle extended 72° C. for 10 minutes. The PCR products accompanied by 100 bp ET marker were separated by 1.2% agarose gel, stained with ethidium bromide and visualized under UV light. A Polaroid picture was taken by Foto/Phoresis UV documentation system (Fotodyne Inc.). Beta-actin expression under the same experimental conditions was used as a reference to normalize the expressions. The comparison of bend width of PCR was analyzed by Image J (NIH) after normalized by the expression of β-Actin.

[7] = 2,2-diphenyl-1-picrylhydrazyl (DPPH) radical scavenging activity; settings: for Absorbance at 517 nm, Sample 1 to 3: 30 minutes, single samples; for Absorbance at 517 nm, Average: control 0.963
Method: SO101C, vitamin C or vitamin E at various concentrations were incubated with 0.4 mM 2,2-diphenyl-1-picrylhydrazyl (DPPH, Sigma) in ethanol at room temperature for 30 minutes. Absorbance at 517 nm was measured by a spectrophotometer.

[8] = biological target: T2, MMP-3 (stromelysin-1, human recombinant catalytic domain) (Homo sapiens, UniProt P08254); experiment: Inhibition of MMP-3 enzyme activity, fluorogenic substrate; format: biochemical
T2 construct: MMP-3 (stromelysin-1, human recombinant catalytic domain from Calbiochem Cat. 444217); purchased Calbiochem 444217
Method: (§1) MMP-3 (stromelysin-1, human recombinant catalytic domain from Calbiochem Cat. 444217) was activated by p-aminophenylmercuric acetate for 60 minutes at 37° C. After preincubation of SO101C or vehicle with the activated enzyme (5 nM) in a reaction mixture containing 50 mM MOPS (pH 7.2), 10 mM CaCl2 and 10 μM ZnCl2 at 37° C. for 60 minutes, the reaction was initiated by addition of 4 μM (7-methoxycoumarin-4-yl)acetyl-Pro-Leu-Gly-Leu-N-3-(2,4-dinitrophenyl)-L-2,3-diaminopropinoyl-Ala-Arg-NH2 and incubated for a further 120 minutes at 37° C. Enzyme activity was determined spectrofluorometrically by measuring the formation of fluorescent (7-methoxycoumarin-4-yl)acetyl-Pro-Leu-Gly.

[9] = biological target: T3, MMP-13 (human recombinant) (Homo sapiens, UniProt P45452); experiment: Inhibition of MMP-13 enzyme activity, fluorogenic substrate; format: biochemical
T3 construct: purchased Calbiochem 444248; host or cells: Sf9
Method: as §1, with “MMP-13 proenzyme (human recombinant, expressed in Sf9 cell,” for “MMP-3 (stromelysin-1, human recombinant catalytic domain from”, “444248)” for “444217)”, “with the activated enzyme (0.5” for “(5”, “ZnCl2 for 60 minutes” for “ZnCl2”, “C.,” for “C. for 60 minutes,”

[10] = Anti-lipid peroxidation activity (malondialdehyde/thiobarbituric acid); format: biochemical, Mouse; settings: for OD (A532-A600): control (0) 0.973
Method: Mouse brain KCl extract was used as the source of lipid. Brain extract was incubated with 1 mM FeSO4 and 0.1 mM vitamin C at 37° C. for 90 minutes. The malondialdehyde formed by peroxyl radical was reacted with thiobarbituric acid to form an adduct that absorbed at 532 nm after centrifugation to discard TCA precipitation.

T2 sequence (P08254 100-272 limits assumed): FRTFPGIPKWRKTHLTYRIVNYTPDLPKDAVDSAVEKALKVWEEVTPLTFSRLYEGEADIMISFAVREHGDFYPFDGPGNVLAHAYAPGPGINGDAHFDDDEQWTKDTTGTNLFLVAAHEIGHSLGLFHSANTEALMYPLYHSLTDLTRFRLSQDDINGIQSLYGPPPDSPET

Compound: O=C(O[C@@H]1Cc2c(O)cc(O)cc2O[C@@H]1c1ccc(O)c(O)c1)c1cc(O)c(O)c(O)c1 [(−)-Epicatechin gallate]
Inhibition (%) ([1]; 6.1 μM): 50%
IC50 ([1]; read-out: Concentration giving 50 % inhibition (SOD mimetic assay)): 6100 nM

inhibition of MMP-2 activity in cell free system (in words) [2]: showed dose dependent inhibition
MMP-2 activity (% of control) ([2]; 0.1 mM): 46.6 % of control
MMP-2 activity (% of control) ([2]; 0.3 mM): 30.5 % of control
Compound: O=C(O)CN(CCN(CC(=O)O)CC(=O)O)CC(=O)O [EDTA]

Compound: N[C@H]1C(O)O[C@H](CO)[C@@H](O)[C@@H]1O (stereo partly drawn) [Glucosamine, glucosamine]
effects on ALP, collagen and GAGs in chondrocytes (in words) [3]: did not show significant effects
effect on ALP, collagen and GAGs in bone marrow mesenchymal stem cells (in words) [4]: did not show significant effect
MMP-2 activity (% of control) Active form (66K) [5]: 118.2 % of control
MMP-2 activity (% of control) Latent form (72K) [5]: 92.5 % of control
Gene expression (% of control) ALP ([6]; 1 mM): 180.0 % of control
Gene expression (% of control) Aggrecan ([6]; 1 mM): 133.7 % of control
Gene expression (% of control) Aggrecanase ([6]; 1 mM): 130.9 % of control
Gene expression (% of control) BMP-2 ([6]; 1 mM): 173.4 % of control
Gene expression (% of control) Col II ([6]; 1 mM): 162.4 % of control
Gene expression (% of control) TGF-β ([6]; 1 mM): 120.9 % of control
expression of cartilage metabolism related genes (in words) ([6]; SO101C 0.01 mg/ml or glucosamine 1 mM): stimulated the expression of most of the cartilage metabolism related genes

Compound: O=C1O[C@H]([C@@H](O)CO)C(O)=C1O [Vitamin C, vitamin C]
Inhibition (%) ([7]; 0.01 mM): 19.5%
Absorbance at 517 nm, Sample 1 to 3 ([7]; 0.01 mM): 0.753 and 0.790 and 0.781
Absorbance at 517 nm, Average ([7]; 0.01 mM): 0.775
Inhibition (%) ([7]; 0.03 mM): 64.8%
Absorbance at 517 nm, Sample 1 to 3 ([7]; 0.03 mM): 0.321 and 0.362 and 0.333
Absorbance at 517 nm, Average ([7]; 0.03 mM): 0.339
Inhibition (%) ([7]; 0.1 mM): 92.5%
Absorbance at 517 nm, Sample 1 to 3 ([7]; 0.1 mM): 0.068 and 0.079
Absorbance at 517 nm, Average ([7]; 0.1 mM): 0.072

Inhibition (%) ([8]; 0.0076 μM): 50%
IC50 ([8]; read-out: Concentration giving 50 % inhibition of MMP-3): 7.6 nM
Inhibition (%) ([9]; 0.0068 μM): 50%
IC50 ([9]; read-out: Concentration giving 50 % inhibition of MMP-13): 6.8 nM
Compound: TIMP-1: reference agent in the MMP-3 and MMP-13 inhibition tables

Compound: vitamin E
Inhibition (%) ([7]; 0.01 mM): 30.6%
Absorbance at 517 nm, Sample 1 to 3 ([7]; 0.01 mM): 0.647 and 0.688 and 0.668
Absorbance at 517 nm, Average ([7]; 0.01 mM): 0.668
Inhibition (%) ([7]; 0.03 mM): 76.9%
Absorbance at 517 nm, Sample 1 to 3 ([7]; 0.03 mM): 0.213 and 0.208 and 0.245
Absorbance at 517 nm, Average ([7]; 0.03 mM): 0.222
Inhibition (%) ([7]; 0.1 mM): 77.5%
Absorbance at 517 nm, Sample 1 to 3 ([7]; 0.1 mM): 0.204 and 0.241 and 0.205
Absorbance at 517 nm, Average ([7]; 0.1 mM): 0.217
inhibition of lipid peroxidation (in words) [10]: dose dependently inhibited lipid peroxidation
OD (A532-A600) ([10]; 0.003 mM): 0.844
OD (A532-A600) ([10]; 0.01 mM): 0.697
OD (A532-A600) ([10]; 0.03 mM): 0.526
